Reference: patent US8759364B2, “Methods of treating bone mass diseases” (The Trustees of Columbia University in the City of New York, priority 2008, dated 2014)
“Also recorded” adds a separate entry of the source.

Key:
peripheral serotonin = assay: Effect of oral CBMIDA on peripheral serotonin production in mice (serum serotonin ELISA), Example 1; format: in vivo
Protocol: (§1) The ability of selective TPH1 inhibitor CBMIDA to reduce peripheral serotonin measured in serum was tested. Either 250 or 500 mg/kg doses of CBMIDA were administered orally twice in 20 hours to 4 week old mice, 4-5 mice per group. As a control, some mice were untreated and some received 250 mg/kg pCPA orally. […] CBMIDA has been reported to be an EDTA analog that increases osteoid volume in beagle dogs and induces proliferation of rat calvarial-derived osteoblasts in vitro (Xie, et al., Bioorganic & Medicinal Chemistry Letters 15 (2005) 3267-3270, incorporated herein by reference in its entirety).
One month old C57Bl/6 inbred male mice, weighing 15-16 g were used in the experiments. Animals were housed under 12 h light/12 h dark conditions in a room with controlled temperature (22° C.) and humidity (60%). Mice had ad libitum access to food and water, and were used after a minimum of 4 days of acclimatization to the housing conditions. All experiments were conducted following Columbia University Guidelines for the Animal Use and Care of laboratory mice.
(§2) Before the experiments, animals were separated into individual cages one day prior to the experiment. Compounds were fed orally (gavage) to the mouse, calculated according to the weight of the mouse, twice a day at 1700 h and at 1100 h. […] This route created two potential barriers for the compound to reach the brain. […] Control animals received the same volume of vehicle. Blood was collected through heart puncture on isofluorane-anaesthesized animals and allowed to clot for 5 minutes on ice. The serum was separated, snap chilled in liquid nitrogen and frozen at −80° C. till analyzed. Brainstems from all the animals were collected and processed for brain serotonin measurement through HPLC.
The Serotonin ELISA kit obtained from the Fitzgerald company was used to measure derivatized serotonin from serum. Derivatization is part of the sample preparation. Serotonin present in the serum was first quantitatively acylated into N-Acylserotonin using the acylation reagent. The principle of the assay is based on competitive ELISA, wherein serotonin that is bound to the solid phase of the plate and the N-acylserotonin compete for the fixed number of antiserum binding sites. When the reaction is in equilibrium, free antigen and free antigen-antiserum complexes are removed by washing.
The antibody bound to the solid phase serotonin is then detected using antirabbit/peroxidase. The substrate TMB/Peroxidase reaction is read at 450 nm. The amount of antibody bound to the solid phase serotonin is inversely proportional to the concentration of serotonin in the sample.
Catechol-3,6-bis methyleneiminodiacetic acid (CBMIDA) (basic structure is an EDTA-like compound and the catechol ring is at the centre) synthesized at the Columbia University Chemistry division, and para-chlorophenylalanine (pCPA) obtained from Sigma Aldrich Corp. were used. Each compound was dissolved with twice molar solution of NaHCO3 in water and given to mouse orally at 250 and 500 mg/kg/dose.

serotonin in the brain = assay: Brain serotonin and blood brain barrier crossing after oral feeding; format: in vivo, mice
Protocol: as §1, §2

Lrp5−/− mice = assay: pCPA treatment of WT and Lrp5−/− mice (bone histomorphometry, serum serotonin, TPH1/TPH2 expression); format: in vivo
Protocol: Consistent with the conclusion that the increase in serum serotonin level is responsible fully or partly for the bone phenotype of the Lrp5−/− mice is the discovery that pCPA, a serotonin synthesis inhibitor (Eldridge et al., 1981, Ann. Rev. Physiol. 43:121-135), prevented the appearance of the Lrp5−/− bone phenotype by decreasing serotonin production. WT and Lrp5−/− mice were treated with 300 mg/kg pCPA intraperitoneally three times per week, from 3 weeks to 12 weeks of age (FIG. 7A) and the changes in serum serotonin levels, TPH1 expression in gut and TPH2 expression in brain stem were analyzed. Bone histomorphometry was also performed. […] This rescue of the Lrp5−/− phenotype was achieved by normalization of the gut TPH1 mRNA and of serum serotonin levels (FIGS. 7C and 7D).
Generation of Lrp5−/− (Kato et al., 2002, J. Cell Biol. 157:303-314) β-cateninfloxed/floxed (Glass et al., 2005, Dev. Cell 8:751-764), α1(I)collagen-cre transgenic (Dacquin et al., 2002, Dev. Dyn. 224:245-251) and Htt−/− (Ansorge et al., 2008, J. Neurosci. 28:199-207) mice were as described previously. Lrp5+/−;Htt+/− double heterozygous mice were generated by crossing Lrp5+/− and Htt+/− mice. Three week-old Wt or Lrp5−/− mice were administered pCPA on alternate days for 9 weeks by i.p. All animal protocols were approved by the Animal Care Committees of Columbia University.
Static histomorphometry measurements were performed as previously described in accordance with standard nomenclature, using the Osteomeasure Analysis System (Osteometrics, Inc) (Ducy et al., 2000, Cell 100:197-207). Four to 9 animals were assigned per group.
Serotonin serum levels were quantified using immunoassay kits from Fitzgerald (Serotonin) and serotonin levels in the different regions of the brain were quantified by HPLC method as described previously (Mann et al., 1992, Arch. Gen. Psychiatry 49:442-446).

[1] = 300 mg/kg pCPA i.p. three times per week, 3 to 12 weeks of age, FIG. 7

NC(Cc1ccc(Cl)cc1)C(=O)O (stereo not drawn) [pCPA, para-chlorophenylalanine]
reduction of peripheral serotonin measured in serum (peripheral serotonin; 250 mg/kg orally twice in 20 hours, 4 week old mice): ~50%
serum serotonin levels decreased to % below normal range (peripheral serotonin; pCPA used as control, oral, FIG. 11): > 60%
serotonin in the brain (serotonin in the brain; 250 mg/kg orally): did not decrease
crossing of the blood brain barrier (serotonin in the brain; at the amounts used (250 mg/kg)): did not cross
bone mass in WT mice (Lrp5−/− mice; 300 mg/kg pCPA i.p. three times per week, 3 to 12 weeks of age): without overtly affecting
gut TPH1 mRNA in Lrp5−/− mice (Lrp5−/− mice; [1]): normalization
serum serotonin levels in Lrp5−/− mice (Lrp5−/− mice; [1]): normalization; also recorded: normalizes
bone abnormalities (low bone phenotype) of Lrp5−/− mice (Lrp5−/− mice; 300 mg/kg pCPA i.p. three times per week, 3 to 12 weeks of age, histomorphometry, FIG. 7B): corrected
Brain TPH2 mRNA levels (Lrp5−/− mice; treated mice, 300 mg/kg pCPA i.p.): not affected
